One assay relates to APP/PS1 double transgenic mouse. Briefly: Y-maze test using APP/PS1 double transgenic mouse (spontaneous alternation behavior). The assay is classed as in vivo. Conditions: 10 mg/kg orally once a day, Y-maze at 16 hours after the 13th administration. The protocol: Animals used were 3-month-old female APP/PS1 double transgenic mice (10-15 mice/group). A test compound was suspended in a 0.5% aqueous methylcellulose [133-14255 WAKO] solution (1 mg/mL). The body weight of the mice was measured, and the solution was forcibly administered orally and repeatedly once a day for 14 days. At 16 hours after the 13th administration, spontaneous alternation behavior in Y-maze test was evaluated. Using a particular arm of a Y-shaped test apparatus as the starting point, the frequency of moving to a different arm was counted for 5 min. The first two times of entry were excluded from the total number of entry. In addition, the mice that entered less than 10 times in total were excluded. Movement to an arm different from the arm into which the mouse entered last but one was considered an alternation behavior, and the ratio to the total number of moving was calculated as a spontaneous alternation behavior rate. As comparison subjects, a control group (test compound-non treatment group) and a control group in wild-type mice were used.
T1 sequence (Q9Y6A2 whole entry): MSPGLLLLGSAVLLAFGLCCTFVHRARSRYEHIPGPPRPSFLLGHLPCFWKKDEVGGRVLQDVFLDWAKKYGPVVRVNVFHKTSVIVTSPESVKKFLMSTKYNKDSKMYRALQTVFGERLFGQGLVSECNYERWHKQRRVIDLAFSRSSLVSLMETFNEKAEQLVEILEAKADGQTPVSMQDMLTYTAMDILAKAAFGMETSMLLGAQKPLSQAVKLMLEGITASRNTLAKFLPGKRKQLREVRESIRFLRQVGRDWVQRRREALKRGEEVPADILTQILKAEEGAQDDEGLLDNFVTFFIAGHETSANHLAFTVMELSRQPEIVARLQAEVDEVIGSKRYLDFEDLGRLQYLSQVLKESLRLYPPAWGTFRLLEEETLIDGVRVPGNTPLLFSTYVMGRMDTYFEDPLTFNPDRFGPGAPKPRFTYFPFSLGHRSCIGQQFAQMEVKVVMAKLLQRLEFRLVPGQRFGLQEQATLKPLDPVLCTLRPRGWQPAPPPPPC
As to `O=C(c1cccnc1-c1ccncc1)N1CCC(O)(Cc2ccccc2)CC1` [Example 44, (4-benzyl-4-hydroxypiperidin-1-yl)(2,4′-bipyridin-3-yl)methanone], the “Spontaneous alternation behavior rate (%)” value is on record as 71%.

On to `O=C(c1cccnc1-c1ccncn1)N1CCC(O)(Cc2ccc(F)cc2)CC1` [Example 92, (4-(4-fluorobenzyl)-4-hydroxypiperidin-1-yl)(2-(pyrimidin-4-yl)pyridin-3-yl)methanone], for which the “Spontaneous alternation behavior rate (%)” value came to 62%.

The assay is the same for the next values; noted with them: 30 mg/kg orally once a day, Y-maze at 16 hours after the 13th administration.
As for `O=C(c1cccnc1-c1ccncc1)N1CCC(O)(Cc2ccccc2)CC1` [Example 44, (4-benzyl-4-hydroxypiperidin-1-yl)(2,4′-bipyridin-3-yl)methanone], the “Spontaneous alternation behavior rate (%)” value amounted to 71%.

As to `O=C(c1cccnc1-c1ccncn1)N1CCC(O)(Cc2ccc(F)cc2)CC1` [Example 92, (4-(4-fluorobenzyl)-4-hydroxypiperidin-1-yl)(2-(pyrimidin-4-yl)pyridin-3-yl)methanone], the “Spontaneous alternation behavior rate (%)” value amounted to 72%.

The next assay concerns the target T1, human CH24H (Homo sapiens, UniProt Q9Y6A2).
T1 construct: Using Full-Length Mammalian Gene Collection No. 4819975 (Invitrogen) as a template; made in house; host or cells: FreeStyle 293-F cells (transient transfection with pcDNA3.1(+)/hCH24H); crude lysate supernatant
Briefly: Measurement of CH24H inhibitory activity (24-HC produced from [14C] cholesterol by human CH24H lysate). Conditions: 1 μM test compound, [14C] cholesterol 15 μM, 37° C., 5 hr, read-out: Inhibitory rate (%) at 1 μM. The class given is biochemical. The protocol:
The expression of human CH24H was performed using FreeStyle 293 Expression System (Invitrogen). According to the manual attached to FreeStyle 293 Expression System and using the plasmid DNA (pcDNA3.1(+)/hCH24H) for human CH24H expression constructed in Experimental Example 1, a transient expression using FreeStyle 293-F cell was performed. After transfection, the cells were cultured with shaking at 37° C., 8% CO2, 125 rpm for 2 days. The cells were collected by centrifugation, and suspended in a buffer for suspension (100 mM potassium phosphate (pH 7.4), 0.1 mM EDTA, 1 mM DTT, 20% Glycerol). The suspended product was disrupted by a polytron homogenizer (manufactured by Kinematica), and centrifuged at 9000×g for 10 min, and the supernatant was collected. The collected supernatant was cryopreserved (−80° C.) as a human CH24H lysate standard product.
For the measurement of CH24H inhibitory activity, using the human CH24H lysate prepared in Experimental Example 2, the amount of 24-HC produced from cholesterol by catalysis of CH24H was measured in the presence of a test compound, and the amount was compared with that in the absence of the test compound. That is, a test compound solution at various concentrations were mixed with a reaction buffer (50 mM potassium phosphate containing 0.1% BSA and Complete, EDTA-free protease inhibitor cocktail, pH 7.4) and human CH24H lysate. Then, [^14C] cholesterol (53 mCi/mmol specific activity, 15 μM) was added, and CH24H reaction was performed at 37° C. for 5 hr. After completion of the reaction, a quenching solution consisting of chloroform/methanol/distillation water (2:2:1 v/v) was added, and the resulting 24-HC was extracted by shaking. The extract was applied to silica gel thin layer chromatography (ethyl acetate:toluene=4:6), and the obtained ^14C-24HC fraction was measured with BAS2500 (Fujifilm Corporation).
The inhibitory rate (%) was calculated from the ratio of radioactivity in the presence of a test compound relative to the radioactivity in the absence of the test compound.
For `Cc1nc(-c2ccncn2)c(C(=O)N2CCC(O)(Cc3ccccc3)CC2)s1` [Example 60, (4-benzyl-4-hydroxypiperidin-1-yl)(2-methyl-4-(pyrimidin-4-yl)-1,3-thiazol-5-yl)methanone], the inhibition at 1 µM is 82%.

In the case of `Cn1ncc(-c2ccncc2)c1C(=O)N1CCC(O)(Cc2ccccc2)CC1` [Example 32, (4-benzyl-4-hydroxypiperidin-1-yl)(1-methyl-4-(pyridin-4-yl)-1H-pyrazol-5-yl)methanone], the inhibition at 1 µM came out at 92%.

Regarding `O=C(c1cc(F)c(F)cc1-c1ccncn1)N1CCC(O)(Cc2ccccn2)CC1` [Example 56, (4,5-difluoro-2-(pyrimidin-4-yl)phenyl)(4-hydroxy-4-(pyridin-2-ylmethyl)piperidin-1-yl)methanone], the inhibition at 1 µM stood at 90%.

`O=C(c1c(C(F)(F)F)n[nH]c1-c1ccncc1)N1CCC(O)(Cc2ccccc2)CC1` [Example 41, (4-benzyl-4-hydroxypiperidin-1-yl)(5-(pyridin-4-yl)-3-(trifluoromethyl)-1H-pyrazol-4-yl)methanone]: the inhibition at 1 µM stood at 93%.

In the case of `Cc1ccc(-c2ccncc2)c(C(=O)N2CCC(O)(CC3=NCCS3)CC2)c1` [Example 39, (4-(4,5-dihydro-1,3-thiazol-2-ylmethyl)-4-hydroxypiperidin-1-yl)(5-methyl-2-(pyridin-4-yl)phenyl)methanone], the inhibition at 1 µM was found to be 90%.

As to `O=C(c1ccccc1-c1cnco1)N1CCC(O)(Cc2ccc(F)cc2F)CC1` [Example 102, (4-(2,4-difluorobenzyl)-4-hydroxypiperidin-1-yl)(2-(1,3-oxazol-5-yl)phenyl)methanone], the inhibition at 1 µM was found to be 89%.

For `Cc1ccc(-c2ccncc2)c(C(=O)N2CCC(O)(C(C)C)CC2)c1` [Example 5, (4-hydroxy-4-isopropylpiperidin-1-yl)(5-methyl-2-(pyridin-4-yl)phenyl)methanone], the inhibition at 1 µM was 70%.

With `O=C(c1cccnc1-c1ccncc1)N1CCC(O)(Cc2ccc(F)c(F)c2)CC1` [Example 86, 2,4′-bipyridin-3-yl(4-(3,4-difluorobenzyl)-4-hydroxypiperidin-1-yl)methanone], the inhibition at 1 µM amounted to 89%.

Take `O=C(c1cccnc1-c1ccncn1)N1CCC(O)(Cc2ccccc2)CC1` [Example 54, (4-benzyl-4-hydroxypiperidin-1-yl)(2-(pyrimidin-4-yl)pyridin-3-yl)methanone]: the inhibition at 1 µM stood at 90%.

With `COC1(Cc2ccccc2)CCN(C(=O)c2cc(C)ccc2-c2ccncc2)CC1` [Example 59, (4-benzyl-4-methoxypiperidin-1-yl)(5-methyl-2-(pyridin-4-yl)phenyl)methanone], the inhibition at 1 µM came to 83%.

For `O=C(c1ccccc1-c1ccncn1)N1CCC(O)(Cc2ccccc2)CC1` [Example 14, (4-benzyl-4-hydroxypiperidin-1-yl)(2-(pyrimidin-4-yl)phenyl)methanone], the inhibition at 1 µM amounted to 92%.

Turning to `O=C(c1scnc1-c1ccncc1)N1CCC(O)(Cc2ccccc2)CC1` [Example 26, (4-benzyl-4-hydroxypiperidin-1-yl)(4-(pyridin-4-yl)-1,3-thiazol-5-yl)methanone], the inhibition at 1 µM turned out to be 92%.

As to `COc1ccc(CC2(O)CCN(C(=O)c3cccnc3-c3ccncc3)CC2)cc1` [Example 97, 2,4′-bipyridin-3-yl(4-hydroxy-4-(4-methoxybenzyl)piperidin-1-yl)methanone], the inhibition at 1 µM is 87%.

As for `Cc1noc(-c2ccncc2)c1C(=O)N1CCC(O)(Cc2ccccc2)CC1` [Example 2, (4-benzyl-4-hydroxypiperidin-1-yl)(3-methyl-5-(pyridin-4-yl)-1,2-oxazol-4-yl)methanone], the inhibition at 1 µM turned out to be 90%.

In the case of `O=C(c1cccnc1-c1ccncc1)N1CCC(O)(Cc2ccc(F)cc2)CC1` [Example 67, 2,4′-bipyridin-3-yl(4-(4-fluorobenzyl)-4-hydroxypiperidin-1-yl)methanone], the inhibition at 1 µM was 89%.

On to `O=C(c1ccccc1-c1ccncn1)N1CCC(O)(Cc2ccccn2)CC1` [Example 34, (4-hydroxy-4-(pyridin-2-ylmethyl)piperidin-1-yl)(2-(pyrimidin-4-yl)phenyl)methanone], for which the inhibition at 1 µM came out at 90%.

In the case of `O=C(c1cccnc1-c1ccncc1)N1CCC(O)(Cc2ccccc2)CC1` [Example 44, (4-benzyl-4-hydroxypiperidin-1-yl)(2,4′-bipyridin-3-yl)methanone], the inhibition at 1 µM is 95%.

For `O=C(c1cccnc1-c1ccncn1)N1CCC(O)(Cc2ccc(F)cc2)CC1` [Example 92, (4-(4-fluorobenzyl)-4-hydroxypiperidin-1-yl)(2-(pyrimidin-4-yl)pyridin-3-yl)methanone], the inhibition at 1 µM came to 88%.

With `O=C(c1c(-c2ccncc2)ccc2c1OCO2)N1CCC(O)(Cc2ccccc2)CC1` [Example 9, (4-benzyl-4-hydroxypiperidin-1-yl)(5-(pyridin-4-yl)-1,3-benzodioxol-4-yl)methanone], the inhibition at 1 µM amounted to 87%.

On to `O=C(c1ccc(F)cc1-c1ccncc1)N1CCC(O)(Cc2ccccn2)CC1` [Example 30, (4-fluoro-2-(pyridin-4-yl)phenyl)(4-hydroxy-4-(pyridin-2-ylmethyl)piperidin-1-yl)methanone], for which the inhibition at 1 µM was found to be 91%.

For the molecule `Cc1ccc(-c2ccncc2)c(C(=O)N2CCC(O)(Cc3ccccc3)CC2)c1` [Example 1, (4-benzyl-4-hydroxypiperidin-1-yl)(5-methyl-2-(pyridin-4-yl)phenyl)methanone], the inhibition at 1 µM worked out at 92%.

In the case of `O=C(c1cc(F)ccc1-c1ccncn1)N1CCC(O)(Cc2ccccn2)CC1` [Example 58, (5-fluoro-2-(pyrimidin-4-yl)phenyl)(4-hydroxy-4-(pyridin-2-ylmethyl)piperidin-1-yl)methanone], the inhibition at 1 µM was found to be 84%.

With `O=C(c1cccnc1-c1ccncn1)N1CCC(O)(Cc2ccc(F)cc2F)CC1` [Example 105, (4-(2,4-difluorobenzyl)-4-hydroxypiperidin-1-yl)(2-(pyrimidin-4-yl)pyridin-3-yl)methanone], the inhibition at 1 µM came out at 95%.

Turning to `O=C(c1cccnc1-c1ccncc1)N1CCC(O)(Cc2ccc(F)cc2F)CC1` [Example 87, 2,4′-bipyridin-3-yl(4-(2,4-difluorobenzyl)-4-hydroxypiperidin-1-yl)methanone], the inhibition at 1 µM stood at 89%.

For the molecule `N#Cc1ccc(CC2(O)CCN(C(=O)c3cccnc3-c3ccncc3)CC2)cc1` [Example 70, 4-((1-(2,4′-bipyridin-3-ylcarbonyl)-4-hydroxypiperidin-4-yl)methyl)benzonitrile], the inhibition at 1 µM was determined as 89%.

Take `O=C(c1ccccc1-c1cnco1)N1CCC(O)(Cc2ccccc2)CC1` [Example 82, (4-benzyl-4-hydroxypiperidin-1-yl)(2-(1,3-oxazol-5-yl)phenyl)methanone]: the inhibition at 1 µM worked out at 87%.

In the case of `O=C(c1ccc(F)cc1-c1ccncn1)N1CCC(O)(Cc2ccccn2)CC1` [Example 63, (4-fluoro-2-(pyrimidin-4-yl)phenyl)(4-hydroxy-4-(pyridin-2-ylmethyl)piperidin-1-yl)methanone], the inhibition at 1 µM stood at 82%.

Take `O=C(c1ncsc1-c1ccncc1)N1CCC(O)(Cc2ccccc2)CC1` [Example 25, (4-benzyl-4-hydroxypiperidin-1-yl)(5-(pyridin-4-yl)-1,3-thiazol-4 yl)methanone]: the inhibition at 1 µM was 94%.

The record behind these values is patent publication US8648079B2, “Heterocyclic compounds” (Takeda Pharmaceutical Company Limited, priority 2011, dated 2014).
